Test results as given in US20230053688A1, “METHODS TO ALTER LATENCY IN EBV+ MALIGNANCIES” (Cornell University, priority 2020, published 2023).
Counter-ions that a name gives are not always drawn. Like-named read-outs stand apart in the source and are kept apart here.

Test system: LMP1 expression in Kem I cells
Test: microbe, parasite or virus in culture
Format: cell-based, EBV
Conditions: for fold induction at 2.5 µM: human gammaherpesvirus 4, 48 h
[1] = Kem I cells, 2.5 uM, 48 hours, average of replicates 1 and 2
[2] = Kem I cells, 2.5 uM, 48 hours, fold change in LMP1 transcript vs vehicle
[3] = read-out: Average LMP1 Fold Increase, Kem I cells, 2.5 uM, 48 hours, average of replicates 1 and 2
[4] = read-out: Replicate 1-LMP1 Fold Increase, Kem I cells, 2.5 uM, 48 hours, fold change in LMP1 transcript vs vehicle
[5] = read-out: Replicate 2-LMP1 Fold Increase, Kem I cells, 2.5 uM, 48 hours, fold change in LMP1 transcript vs vehicle

SMILES | Average LMP1 Fold Increase [1] | Replicate 1-LMP1 Fold Increase [2] | Replicate 2-LMP1 Fold Increase [2] | also measured
CC(C)N(CC[C@H](c1ccccc1)c1cc(CO)ccc1O)C(C)C | 0.36 | 0.49 | 0.23 | –
O=[N+]([O-])C=Cc1ccc2c(c1)OCO2 | 1.11 | 0.54 | 1.68 | –
O=C(O)C(Cc1ccccc1[N+](=O)[O-])=NNc1nc(-c2ccc(Cl)c(Cl)c2)cs1 (mixture of isomers) [4EGI-1] | 0.64 | 0.41 | 0.86 | –
Fc1cc(F)c2c(c1)[C@H]1C=CC[C@H]1C(c1cccnc1)N2 (mixture of isomers) [Golgicide A] | 0.27 | 0.34 | 0.19 | –
C[C@H]1COC2(CCN(c3nc(=O)c4cc(C(F)(F)F)cc([N+](=O)[O-])c4s3)CC2)O1 (racemic) [BTZ043 Racemate] | 0.64 | 0.62 | 0.67 | –
Cl.N[C@@H]1C[C@H]1c1ccccc1 (racemic) [Tranylcypromine (2-PCPA) HCl] | – | – | – | Average LMP1 Fold Increase: 0.33 fold; Replicate 1-LMP1 Fold Increase: 0.22 fold; Replicate 2-LMP1 Fold Increase: 0.45 fold
COc1cc2c(cc1O)CC[C@@H]1[C@@H]2CC[C@]2(C)[C@@H](O)CC[C@@H]12 [2-Methoxyestradiol (2-MeOE2)] | 1.00 | 0.65 | 1.34 | –
O=C(O)c1ccc(N2C(=O)/C(=C\c3ccc(-c4ccc([N+](=O)[O-])cc4)o3)C=C2c2ccccc2)cc1 [4E1RCat] | 0.71 | 0.30 | 1.12 | –
C=CCNC1=C2C[C@@H](C)C[C@H](OC)[C@H](O)[C@@H](C)/C=C(\C)[C@H](OC(N)=O)[C@@H](OC)/C=C\C=C(/C)C(=O)NC(=CC1=O)C2=O [17-AAG (Tanespimycin)] | 0.45 | 0.36 | 0.55 | –
CN1CCc2cc3c(cc2[C@H]1[C@@H]1OC(=O)c2c1ccc1c2OCO1)OCO3 [(+)-Bicuculline] | 0.89 | 0.86 | 0.93 | –
C[C@H](Oc1cc(-c2cnn(C3CCNCC3)c2)cnc1N)c1c(Cl)ccc(F)c1Cl [(S)-crizotinib] | 0.70 | 0.57 | 0.84 | –
C=C1C(=O)O[C@H]2[C@H]1CC/C(C)=C/CC[C@@]1(C)O[C@@H]21 [(−)-Parthenolide] | 0.57 | 0.26 | 0.87 | –
N#Cc1c(O)c2c(-c3ccc(-c4ccccc4O)cc3)csc2[nH]c1=O [A-769662] | 0.40 | 0.41 | 0.39 | –
CC1(C)CCC(CN2CCN(c3ccc(C(=O)NS(=O)(=O)c4ccc(NCC5CCOCC5)c([N+](=O)[O-])c4)c(Oc4cnc5[nH]ccc5c4)c3)CC2)=C(c2ccc(Cl)cc2)C1 [ABT-199 (GDC-0199)] | 0.75 | 0.51 | 0.98 | –
CC1(C)CCC(c2ccc(Cl)cc2)=C(CN2CCN(c3ccc(C(=O)NS(=O)(=O)c4ccc(N[C@H](CCN5CCOCC5)CSc5ccccc5)c(S(=O)(=O)C(F)(F)F)c4)cc3)CC2)C1 [ABT-263 (Navitoclax)] | 0.27 | 0.21 | 0.33 | –
CCN(CC)C(=O)c1ccc(C2=CC3(CCNCC3)Oc3cccc(O)c32)cc1 [ADL5859 HCl] | – | – | – | fold induction at 2.5 µM [3]: 1.02; fold induction at 2.5 µM [4]: 0.54; fold induction at 2.5 µM [5]: 1.5
O=C(c1ccc(F)cc1)N1CCC[C@H](c2nc(-c3ccc(F)cc3)no2)C1 [ADX-47273] | 0.58 | 0.81 | 0.35 | –
CN(C)Cc1ccc(-c2nc3cccc4c3n2CCNC4=O)cc1 [AG-14361] | 0.30 | 0.39 | 0.22 | –
Cc1ccccc1C(C(=O)NC1CCCCC1)N(C(=O)Cn1ccnc1C)c1cccc(F)c1 (stereo not drawn) [AGI-5198] | – | – | – | fold induction at 2.5 µM [3]: 0.82; fold induction at 2.5 µM [4]: 0.71; fold induction at 2.5 µM [5]: 0.93

SMILES | Average LMP1 Fold Increase [1] | Replicate 1-LMP1 Fold Increase [2] | Replicate 2-LMP1 Fold Increase [2] | also measured
O=C(Nc1cccc(C(F)(F)F)c1)Nc1cc(S(=O)(=O)NC2CC2)ccc1-c1ccsc1 [AGI-6780] | – | – | – | fold induction at 2.5 µM [3]: 1.51; fold induction at 2.5 µM [4]: 0.42; fold induction at 2.5 µM [5]: 2.6
CN1CCCCC1Cn1cc(C(=O)c2cc([N+](=O)[O-])ccc2I)c2ccccc21 (stereo not drawn) [AM1241] | 0.79 | 1.01 | 0.56 | –
CC(=O)Nc1nc2c(Oc3cc(-c4ccc(C(F)(F)F)cc4)ncn3)cccc2s1 [AMG-517] | – | – | – | fold induction at 2.5 µM [3]: 0.52; fold induction at 2.5 µM [4]: 0.56; fold induction at 2.5 µM [5]: 0.48
COc1cc(N2CCC(N3CCN(C)CC3)CC2)ccc1Nc1ncc(Cl)c(Nc2ccccc2P(C)(C)=O)n1 [AP26113] | – | – | – | fold induction at 2.5 µM [3]: 0.92; fold induction at 2.5 µM [4]: 1.07; fold induction at 2.5 µM [5]: 0.77
O=C1NC(=O)/C(=C/c2ccc(-c3ccc(F)cc3O)o2)S1 [AS-252424] | 0.53 | 0.57 | 0.49 | –
Cc1cc2c(C(C)C)c(O)c(O)c(C=O)c2c(O)c1-c1c(C)cc2c(C(C)C)c(O)c(O)c(C=O)c2c1O [AT101] | – | – | – | fold induction at 2.5 µM [3]: 1.04; fold induction at 2.5 µM [4]: 0.51; fold induction at 2.5 µM [5]: 1.58
CCNC(=O)c1noc(-c2cc(C(C)C)c(O)cc2O)c1-c1ccc(CN2CCOCC2)cc1 [AUY922 (NVP-AUY922)] | 1.29 | 1.62 | 0.96 | –
C=CC(=O)Nc1cccc(Nc2nc(Nc3ccc(OCCOC)cc3)ncc2F)c1 [AVL-292] | 0.52 | 0.48 | 0.56 | –
C[C@@H]1COCCN1c1cc(C2(S(C)(=O)=O)CC2)nc(-c2cccc3[nH]ccc23)n1 [AZ20] | 1.39 | 1.56 | 1.22 | –
COc1cc(N2CCN(C)CC2)ccc1Nc1nccc(-c2cn(C)c3cnccc23)n1 [AZ191] | 0.37 | 0.50 | 0.24 | –
COc1cc(OC2CCN(C)CC2)ccc1Nc1ncc2c(n1)n(C1CCCC1)c(=O)n2C [AZ 3146] | 0.61 | 0.66 | 0.57 | –
CC(=O)Nc1cccc2c1c(Sc1ccc(Cl)cc1)c(C)n2CC(=O)O [AZD1981] | 0.80 | 1.13 | 0.46 | –
COC1CCN(C(=O)c2cc(Cc3n[nH]c(=O)c4ccccc34)ccc2F)CC1 [AZD2461] | 1.00 | 0.50 | 1.51 | –
COc1cc(N2CCC(N)CC2)ccc1Nc1ncc(Cl)c(-c2c[nH]c3ccccc23)n1 [AZD3463] | 0.26 | 0.28 | 0.24 | –
COc1cc(CCc2cc(NC(=O)c3ccc(N4CC(C)NC(C)C4)cc3)n[nH]2)cc(OC)c1 (stereo not drawn) [AZD4547] | 0.13 | 0.11 | 0.15 | –
Cc1cc([C@@H](C)Nc2ccccc2C(=O)O)c2nc(N3CCOCC3)cc(=O)n2c1 [AZD6482] | 0.22 | 0.06 | 0.37 | –
CN(C)C(=O)c1ccc(S(=O)(=O)c2ccc(NC(=O)[C@@](C)(O)C(F)(F)F)c(Cl)c2)cc1 [AZD7545] | 0.67 | 0.40 | 0.94 | –
NC(=O)Nc1cc(-c2cccc(F)c2)sc1C(=O)N[C@H]1CCCNC1 [AZD7762] | 5.84 | 9.74 | 1.94 | –
